Data as given in patent US8664216B2, “Spiro-5,6-dihydro-4H-2,3,5,10b-tetraaza-benzo[e]azulenes” (Hoffmann-La Roche Inc., priority 2008, dated 2014).
Structures can show the parent of a compound that is named as a salt.

Each compound was assayed against T1, human V1a receptor (Homo sapiens, UniProt P37288) (assay: human V1a receptor binding studies (3H-Vasopressin SPA, membranes of transfected HEK293 cells)). Settings: not given.
T1 construct: expressed in transfected cells; host or cells: HEK293 cells, transiently transfected; membranes prepared
T1 sequence (P37288 whole entry): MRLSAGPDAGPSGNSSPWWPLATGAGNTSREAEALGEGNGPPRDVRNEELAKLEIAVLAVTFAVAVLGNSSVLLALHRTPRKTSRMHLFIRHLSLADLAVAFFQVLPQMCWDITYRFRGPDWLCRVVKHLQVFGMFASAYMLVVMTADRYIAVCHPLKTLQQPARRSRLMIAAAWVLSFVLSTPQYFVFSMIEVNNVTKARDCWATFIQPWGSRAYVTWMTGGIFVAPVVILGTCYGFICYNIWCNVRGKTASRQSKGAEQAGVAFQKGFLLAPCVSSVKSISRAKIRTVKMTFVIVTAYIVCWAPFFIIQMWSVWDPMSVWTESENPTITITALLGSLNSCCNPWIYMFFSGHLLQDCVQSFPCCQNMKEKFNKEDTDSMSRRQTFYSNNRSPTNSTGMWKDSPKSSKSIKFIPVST
Experimental: The human V1a receptor was cloned by RT-PCR from total human liver RNA. The coding sequence was subcloned in an expression vector after sequencing to confirm the identity of the amplified sequence. […] Cell membranes were prepared from HEK293 cells transiently transfected with the expression vector and grown in 20 liter fermenters with the following protocol.
50 g of cells are resuspended in 30 ml freshly prepared ice cold Lysis buffer (50 mM HEPES, 1 mM EDTA, 10 mM MgCl2 adjusted to pH=7.4+complete cocktail of protease inhibitor (Roche Diagnostics)). Homogenized with Polytron for 1 min and sonicated on ice for 2×2 minutes at 80% intensity (Vibracell sonicator). The preparation is centrifuged 20 min at 500 g at 4° C., the pellet is discarded and the supernatant centrifuged 1 hour at 43,000 g at 4° C. (19,000 rpm). The pellet is resuspended in 12.5 ml Lysis buffer+12.5 ml Sucrose 20% and homogenized using a Polytron for 1-2 min. The protein concentration is determined by the Bradford method and aliquots are stored at −80° C. until use. For binding studies 60 mg Yttrium silicate SPA beads (Amersham) are mixed with an aliquot of membrane in binding buffer (50 mM Tris, 120 mM NaCl, 5 mM KCl, 2 mM CaCl2, 10 mM MgCl2) for 15 minutes with mixing. 50 μl of bead/membrane mixture is then added to each well of a 96 well plate, followed by 50 μl of 4 nM 3H-Vasopressin (American Radiolabeled Chemicals). For total binding measurement 100 μl of binding buffer are added to the respective wells, for non-specific binding 100 μl of […] cold vasopressin and for compound testing 100 μl of a serial dilution of each compound in 2% DMSO. The plate is incubated 1 h at room temperature, centrifuged 1 min at 1000 g and counted on a Packard Top-Count. Non-specific binding counts are subtracted from each well and data is normalized to the maximum specific binding set at 100%. To calculate an IC 50 the curve is fitted using a non-linear regression model (XLfit) and the Ki is calculated using the Cheng-Prussoff equation.

Compound	Ki
CN1Cc2cc(Cl)ccc2-n2c(nnc2N2CCC3(CC2)OC(=O)c2ccccc23)C1 [Example 27, 1′-(8-Chloro-5-methyl-5,6-dihydro-4H-[1,2,4]triazolo[4,3-a][1,4]benzodiazepin-1-yl)-3H-spiro[2-benzofuran-1,4′-piperidin]-3-one]	12.3 nM
CN1Cc2cc(Cl)ccc2-n2c(nnc2[C@H]2CC[C@@]3(CC2)OCc2ccccc23)C1 [Example 3, 8-Chloro-5-methyl-1-[(1r,4′r)-3H-spiro[2-benzofuran-1,1′-cyclohexan]-4′-yl]-5,6-dihydro-4H-[1,2,4]triazolo[4,3-a][1,4]benzodiazepine]	2.82 nM
CN1Cc2cc(Cl)ccc2-n2c(nnc2N2CCC3(CC2)OCc2ccccc23)C1 [Example 9, 8-Chloro-5-methyl-1-(1′H,3H-spiro[2-benzofuran-1,4′-piperidin]-1′-yl)-5,6-dihydro-4H-[1,2,4]triazolo[4,3-a][1,4]benzodiazepine]	2.4 nM
Clc1ccc2c(c1)CNCc1nnc([C@H]3CC[C@]4(CC3)OCc3ccccc34)n1-2 [Example 5, 8-Chloro-1-[(1s,4′s)-3H-spiro[2-benzofuran-1,1′-cyclohexan]-4′-yl]-5,6-dihydro-4H-[1,2,4]triazolo[4,3-a][1,4]benzodiazepine hydrochloride]	16.2 nM
CC(C)(C)OC(=O)N1Cc2cc(Cl)ccc2-n2c(nnc2[C@H]2CC[C@@]3(CC2)OCc2ccccc23)C1 [Example 1, tert-Butyl 8-chloro-1-[(1r,4′r)-3H-spiro[2-benzofuran-1,1′-cyclohexan]-4′-yl]-4H-[1,2,4]triazolo[4,3-a][1,4]benzodiazepine-5(6H)-carboxylate]	4.57 nM
Clc1ccc2c(c1)CN(Cc1ccccn1)Cc1nnc(N3CCC4(CC3)OCc3ccccc34)n1-2 [Example 12, 8-Chloro-5-(pyridin-2-ylmethyl)-1-(1′H,3H-spiro[2-benzofuran-1,4′-piperidin]-1′-yl)-5,6-dihydro-4H-[1,2,4]triazolo[4,3-a][1,4]benzodiazepine]	1.82 nM
Clc1ccc2c(c1)CNCc1nnc([C@H]3CC[C@@]4(CC3)OCc3ccccc34)n1-2 [Example 2, 8-Chloro-1-[(1r,4′r)-3H-spiro[2-benzofuran-1,1′-cyclohexan]-4′-yl]-5,6-dihydro-4H-[1,2,4]triazolo[4,3-a][1,4]benzodiazepine hydrochloride]	39.8 nM
CN1Cc2cc(Cl)ccc2-n2c(nnc2N2CCC3(CC2)SCc2ccccc23)C1 [Example 29]	1.74 nM
CN1Cc2cc(Cl)ccc2-n2c(nnc2N2CCC3(CC2)c2ccccc2CS3(=O)=O)C1 [Example 31, 8-Chloro-1-(2,2-dioxido-1′H,3H-spiro[2-benzothiophene-1,4′-piperidin]-1′-yl)-5-methyl-5,6-dihydro-4H-[1,2,4]triazolo[4,3-a][1,4]benzodiazepine]	47.9 nM
CN1Cc2cc(Cl)ccc2-n2c(nnc2N2CCC3(CC2)OCCc2ccccc23)C1 [Example 35, 1′-(8-Chloro-5-methyl-5,6-dihydro-4H-[1,2,4]triazolo[4,3-a][1,4]benzodiazepin-1-yl)-3,4-dihydrospiro[isochromene-1,4′-piperidine]]	10.5 nM
CN1Cc2cc(Cl)ccc2-n2c(nnc2N2CCC3(CC2)COCc2ccccc23)C1 [Example 32, 1′-(8-Chloro-5-methyl-5,6-dihydro-4H-[1,2,4]triazolo[4,3-a][1,4]benzodiazepin-1-yl)-1H-spiro[isochromene-4,4′-piperidine]]	2.19 nM

Same assay, conditions: 3H-Vasopressin displacement, HEK293 cell membranes, Ki calculated from IC50 by Cheng-Prussoff equation; read-out: pKi hV1a (converted)

Compound	Ki
CN1Cc2cc(Cl)ccc2-n2c(nnc2N2CCC3(CC2)OCc2cccc(F)c23)C1 [Example 22, 8-Chloro-1-(7-fluoro-1′H,3H-spiro[2-benzofuran-1,4′-piperidin]-1′-yl)-5-methyl-5,6-dihydro-4H-[1,2,4]triazolo[4,3-a][1,4]benzodiazepine]	3.98 nM
CC(=O)N1Cc2cc(Cl)ccc2-n2c(nnc2N2CCC3(CC2)OCc2ccccc23)C1 [Example 15]	4.17 nM
CC(C)(C)OC(=O)N1Cc2cc(Cl)ccc2-n2c(nnc2N2CCC3(CC2)OCc2ccccc23)C1 [Example 7, tert-Butyl 8-chloro-1-(1′H,3H-spiro[2-benzofuran-1,4′-piperidin]-1′-yl)-4H-[1,2,4]triazolo[4,3-a][1,4]benzodiazepine-5(6H)-carboxylate]	4.47 nM
CN1Cc2cc(Cl)ccc2-n2c(nnc2N2CCC[C@@]3(CC2)OCc2ccccc23)C1 [Example 36, (+)-1-(8-Chloro-5-methyl-5,6-dihydro-4H-[1,2,4]triazolo[4,3-a][1,4]benzodiazepin-1-yl)-3′H-spiro[azepane-4,1′-[2]benzofuran]]	1.45 nM
CN1Cc2cc(Cl)ccc2-n2c(nnc2N2CCC3(CC2)OCc2cc(F)ccc23)C1 [Example 23, 8-Chloro-1-(5-fluoro-1′H,3H-spiro[2-benzofuran-1,4′-piperidin]-1′-yl)-5-methyl-5,6-dihydro-4H-[1,2,4]triazolo[4,3-a][1,4]benzodiazepine]	2.09 nM
CC1OC2(CCN(c3nnc4n3-c3ccc(Cl)cc3CN(C(=O)OC(C)(C)C)C4)CC2)c2ccccc21 (racemic) [Example 24, (RS)-tert-Butyl 8-chloro-1-(3-methyl-1′H,3H-spiro[2-benzofuran-1,4′-piperidin]-1′-yl)-4H-[1,2,4]triazolo[4,3-a][1,4]benzodiazepine-5(6H)-carboxylate]	10.7 nM
CN1Cc2cc(Cl)ccc2-n2c(nnc2N2CCC3(CC2)OCc2ccc(F)cc23)C1 [Example 19, 8-Chloro-1-(6-fluoro-1′H,3H-spiro[2-benzofuran-1,4′-piperidin]-1′-yl)-5-methyl-5,6-dihydro-4H-[1,2,4]triazolo[4,3-a][1,4]benzodiazepine]	7.59 nM
CN(C)CC(=O)N1Cc2cc(Cl)ccc2-n2c(nnc2N2CCC3(CC2)OCc2ccccc23)C1 [Example 16, 2-[8-Chloro-1-(1′H,3H-spiro[2-benzofuran-1,4′-piperidin]-1′-yl)-4H-[1,2,4]triazolo[4,3-a][1,4]benzodiazepin-5(6H)-yl]-N,N-dimethyl-2-oxoethanamine]	6.76 nM
CC(C)N1Cc2cc(Cl)ccc2-n2c(nnc2N2CCC3(CC2)OCc2ccccc23)C1 [Example 10, 8-Chloro-5-isopropyl-1-(1′H,3H-spiro[2-benzofuran-1,4′-piperidin]-1′-yl)-5,6-dihydro-4H-[1,2,4]triazolo[4,3-a][1,4]benzodiazepine]	1.82 nM
CC(C)(C)OC(=O)N1Cc2cc(Cl)ccc2-n2c(nnc2N2CCC3(CC2)OCc2ccc(F)cc23)C1 [Example 17, tert-Butyl 8-chloro-1-(6-fluoro-1′H,3H-spiro[2-benzofuran-1,4′-piperidin]-1′-yl)-4H-[1,2,4]triazolo[4,3-a][1,4]benzodiazepine-5(6H)-carboxylate]	10.2 nM
CN1Cc2cc(Cl)ccc2-n2c(nnc2N2CCC[C@]3(CC2)OCc2ccccc23)C1 [Example 37, (−)-1-(8-Chloro-5-methyl-5,6-dihydro-4H-[1,2,4]triazolo[4,3-a][1,4]benzodiazepin-1-yl)-3′H-spiro[azepane-4,1′-[2]benzofuran]]	5.01 nM
CC1OC2(CCN(c3nnc4n3-c3ccc(Cl)cc3CN(C)C4)CC2)c2ccccc21 (racemic) [Example 26, (RS)-8-Chloro-5-methyl-1-(3-methyl-1′H,3H-spiro[2-benzofuran-1,4′-piperidin]-1′-yl)-5,6-dihydro-4H-[1,2,4]triazolo[4,3-a][1,4]benzodiazepine]	4.79 nM
